Laboratory results as given in US20040002425A1, “Triketone derivatives and herbicides” (Idemitsu Kosan Co., Ltd., priority 1998, published 2004).

System: Transplanted paddy rice plant
Assay: Biological Test 1 (treatment on the 3rd day after transplantation): chemical injury to paddy rice
Assay type: in vivo
Set-up: scale not given here
Settings: Treatment performed 3 days after transplantation
Description: (1) Preparation of Herbicide
Talc (57 parts by weight) and bentonite (40 parts by weight), both serving as carriers, and sodium alkylbenzenesulfate (3 parts by weight) serving as a surfactant were homogeneously ground and mixed to thereby obtain a carrier for water-dispersible powder.
Subsequently, to the water-dispersible powder (90 parts by weight), the triketone derivative (compound No. A-1) produced in Example I-1 (10 parts by weight) was added, and the resultant mixture was homogeneously ground and mixed to thereby obtain a herbicide.
(i) Biological Test 1 (Soaking in Water/Treatment on the 3rd Day After Transplantation)
A Wagner pot (1/2000 are) was filled with paddy soil, and seeds of barnyard grass were planted on the surface layer of the soil, and further, rice seedlings grown to the 2.5-leaf stage were transplanted.
Subsequently, water was poured in the pot to a height of 3 cm above the soil surface, and placed in a greenhouse where the temperature was maintained at 20-25° C., to thereby grow the plant under suitable conditions.
On the 3rd day after transplantation, the herbicide prepared in (1) above was applied to the plant in a predetermined amount. On the 30th day after treatment with the herbicide, weed-killing ratio, herbicidal effect, and extent of chemical injury to paddy rice were examined.
In Biological tests 1 and 2, herbicidal effect and extent of chemical injury were evaluated according to the below-described standards.
3) Chemical Injury to Paddy Rice
Chemical injury to paddy rice was evaluated according to the following criteria.

[1] = dose 100 g/ha, examined on the 30th day after treatment
[2] = dose 200 g/ha, examined on the 30th day after treatment

SMILES | Chemical injury, Transplanted paddy rice plant (dose 100 g/ha) | Chemical injury, Transplanted paddy rice plant (dose 200 g/ha) | Chemical injury, Transplanted paddy rice plant [1] | Chemical injury, Transplanted paddy rice plant [2]
CO/N=C1\CCS(=O)(=O)c2c(C)cc(C(=O)C3=C(Cl)CCCC3=O)c(C)c21 [B-54] | 1 | 4 |  | 
CO/N=C1\CCS(=O)(=O)c2c(C)cc(C(=O)C3=C(N(C)C)CCCC3=O)c(C)c21 [B-55, 4-methoxyimino-5,8-dimethyl-6-(3-dimethylamino-1-oxocyclohexan-2-yl)carbonylthiochroman-1,1-1,1-dioxide] | 0 | 0 |  | 
CO/N=C1\CCS(=O)(=O)c2c(C)cc(C(=O)C3=C(N(C)OC)CCCC3=O)c(C)c21 [B-57, 4-methoxyimino-5,8-dimethyl-6-[3-(N-methoxymethyl)amino-1-oxocyclohexan-2-yl]carbonylthiochroman-1,1-1,1-dioxide] | 0 | 3 |  | 
CO/N=C1\CCS(=O)(=O)c2c(C)cc(C(=O)C3=C(Nc4ccc(C)cc4)CCCC3=O)c(C)c21 [B-58, 4-methoxyimino-5,8-dimethyl-6-[3-(4-methylphenyl)amino-1-oxocyclohexan-2-yl]carbonylthiochroman-1,1-1,1-dioxide] | 0 | 0 |  | 
CO/N=C1\CCS(=O)(=O)c2c(C)cc(C(=O)C3=C(Sc4ccc(C)cc4)CCCC3=O)c(C)c21 [B-59, 4-methoxyimino-5,8-dimethyl-6-[3-(4-methylphenyl)thio-1-oxocyclohexan-2-yl]carbonylthiochroman-1,1-1,1-dioxide] | 0 | 0 |  | 
CO/N=C1\CCS(=O)(=O)c2c(C)cc(C(=O)C3=C(S(=O)(=O)c4ccc(C)cc4)CCCC3=O)c(C)c21 [B-60, 4-methoxyimino-5,8-dimethyl-6-[3-(4-methylphenyl)sulfonyl-1-oxocyclohexan-2-yl]carbonylthiochroman-1,1-1,1-dioxide] | 0 | 0 |  | 
CCCSC1=C(C(=O)c2cc(C)c3c(c2C)/C(=N/OC)CCS3(=O)=O)C(=O)CCC1 [B-61, 4-methoxyimino-5,8-dimethyl-6-[3-(3-propyl)thio-1-oxocyclohexan-2-yl)carbonylthiochroman-1,1-1,1-dioxide] | 0 | 0 |  | 
CCCS(=O)(=O)C1=C(C(=O)c2cc(C)c3c(c2C)/C(=N/OC)CCS3(=O)=O)C(=O)CCC1 [B-62, 4-methoxyimino-5,8-dimethyl-6-[3-(3-propyl)sulfonyl-1-oxocyclohexan-2-yl]carbonylthiochroman-1,1-1,1-dioxide] | 0 | 0 |  | 
Cc1c(C(=O)C2=C(Cl)CCCC2=O)ccc2c1C(=O)C(C)(C)CS2(=O)=O [B-63] | 3 | 5 |  | 
Cc1c(C(=O)C2=C(Sc3ccc(Cl)cc3)CCCC2=O)ccc2c1C(=O)C(C)(C)CS2(=O)=O [B-64, 3,3,5-trimethyl-6-[3-(4-chloro)thio-1-oxocyclohexan-2-yl]carbonylthiochroman-4-one-1,1-dioxide] | 2 | 5 |  | 
Cc1c(C(=O)C2=C(S(=O)(=O)c3ccc(Cl)cc3)CCCC2=O)ccc2c1C(=O)C(C)(C)CS2(=O)=O [B-65] | 3 | 4 |  | 
Cc1cc(C(=O)C2=C(Cl)CCCC2=O)c(C)c2c1S(=O)(=O)CCC2OC(C)C (stereo not drawn) [B-66] | 0 | 4 |  | 
CSC1=C(C(=O)c2cc(C)c3c(c2C)C(OC(C)C)CCS3(=O)=O)C(=O)CCC1 (stereo not drawn) [B-67] | 0 | 1 |  | 
Cc1cc(C(=O)C2=C(Sc3ccccc3)CCCC2=O)c(C)c2c1S(=O)(=O)CCC2OC(C)C (stereo not drawn) [B-68, 4-(2-propyl)oxy-5,8-dimethyl-6-(3-phenylthio-1-oxocyclohexan-2-yl)carbonylthiochroman-1,1-dioxide] | 0 | 0 |  | 
Cc1cc(C(=O)C2=C(S(C)(=O)=O)CCCC2=O)c(C)c2c1S(=O)(=O)CCC2OC(C)C (stereo not drawn) [B-69] | 0 | 1 |  | 
Cc1cc(C(=O)C2=C(SCc3ccccc3)CCCC2=O)c(C)c2c1S(=O)(=O)CCC2OC(C)C (stereo not drawn) [B-70] | 0 | 0 |  | 
Cc1cc(C(=O)C2=C(S(=O)(=O)Cc3ccccc3)CCCC2=O)c(C)c2c1S(=O)(=O)CCC2OC(C)C (stereo not drawn) [B-71] | 0 | 1 |  | 
CO/N=C1\CCS(=O)(=O)c2ccc(C(=O)C3=C(Cl)CCCC3=O)c(C)c21 [B-72] | 0 | 0 |  | 
CO/N=C1\CCS(=O)(=O)c2ccc(C(=O)C3=C(SC)CCCC3=O)c(C)c21 [B-73] | 0 | 0 |  | 
CO/N=C1\CCS(=O)(=O)c2ccc(C(=O)C3=C(Sc4ccccc4)CCCC3=O)c(C)c21 [B-74, 4-methoxyimino-5-methyl-6-(3-phenylthio-1-oxocyclohexan-2-yl)carbonylthiochroman-1,1-dioxide] | 0 | 0 |  | 
CO/N=C1\CCS(=O)(=O)c2ccc(C(=O)C3=C(S(=O)(=O)c4ccccc4)CCCC3=O)c(C)c21 [B-75] | 0 | 1 |  | 
CO/N=C1\CCS(=O)(=O)c2ccc(C(=O)C3=C(N(C)OC)CCCC3=O)c(C)c21 [B-76, 4-methoxyimino-5-methyl-6-[3-(N-methoxymethyl)amino-1-oxocyclohexan-2-yl]carbonylthiochroman-1,1-dioxide] | 0 | 1 |  | 
O=C1CCCC(Cl)=C1C(=O)c1ccc2c(c1Cl)CCCS2(=O)=O [B-77] | 0 | 0 |  | 
O=C1CCCC(Sc2ccccc2)=C1C(=O)c1ccc2c(c1Cl)CCCS2(=O)=O [B-78] | 0 | 0 |  | 
CSC1=C(C(=O)c2ccc3c(c2Cl)CCCS3(=O)=O)C(=O)CCC1 [B-79] | 0 | 0 |  | 
CS(=O)(=O)C1=C(C(=O)c2ccc3c(c2Cl)CCCS3(=O)=O)C(=O)CCC1 [B-80] | 0 | 0 |  | 
O=C1CCCC(O)=C1C(=O)c1cc2c(cc1[N+](=O)[O-])OCO2 [Comparative Example I-1, reference compound] |  |  | 3 | 4
O=C1CCCC(O)=C1C(=O)c1cccc2c1OCCO2 [Comparative Example I-2, reference compound] |  |  | 0 | 0
Cc1cc(C(=O)C2=C(O)CCCC2=O)c(C)c2c1S(=O)(=O)CC2C (stereo not drawn) [Comparative Example I-3, reference compound] |  |  | 3 | 4
Cc1cc(C(=O)C2=C(O)CCCC2=O)c(C)c2c1S(=O)(=O)C(C)C2 (stereo not drawn) [Comparative Example I-4, reference compound] |  |  | 2 | 4
